Reference: patent US10806121B2, “Animal litter containing a pheromone composition” (Sergeant's Pet Care Products, LLC, priority 2014, dated 2020)

Tested on: cats
Assay: Study 1: cat litter preference, pheromone-treated litter versus control litter
Assay type: in vivo
Conditions: for percentage preference (% of the cats using the treated litter): litter treated at 10 μg/3-lb (7.3 μg/kg), choice against control litter over 48 hours, 50% = no effect; for Litter Type Use, g, TRT (weights of litter after 2 days): treated litter box, 10 μg/3-lb, SE = 0.023; for Relative Difference, % / Significantly Different: treated versus control litter weight after 2 days; for effect on cats' litter preference: treated versus control litter, 48 hours
Protocol: In Study 1, four different treatments were tested: Androstenone (ANDRO); cat urinary pheromone, 3-mercapto-3-methyl-1-butanol (CAT); rabbit pheromone, 2-methylbut-2-enal (RP); and both the cat urinary pheromone and the rabbit pheromone (CAT+RP). 40 individual cats were used in this study to assess their preference to or aversion from a control litter versus a litter under one of the four treatments. Each treatment was tested with 10 cats. Litter was divided into 3 lb aliquots, and each aliquot was either used as a control or was mixed with a pheromone (or a pheromone combination) to be tested at a level of 10 μg/3-lb (or 7.3 μg/kg).
On Day 0, each cat was placed into an assigned chamber randomly placed with two litter boxes, one control and one treated. Each of the two litter boxes was weighed and the weight was recorded. The camera in the chamber was properly aligned to give a full view of the chamber and started taping on Day 0. On Day 1, 24 hours after the start of taping on Day 0, each of the two litter boxes in the chamber was weighed and the weight was recorded. On Day 2, 48 hours after the start of taping on Day 0, each of the two litter boxes in the chamber was again weighed. Litter can be disposed of after weighing on Day 2, and the camera was then turned off. The weights of the litter boxes over the 48 hours were used to determine whether the litter was used or not, and at which preference level.
The data were expressed as both a percentage preference (% of the cats using the treated litter in each treatment group) and by the weight of the litter (the litter gets heavier as it is soiled). It was expected that if the added pheromone had no effect on litter preference, 50% of the cats would use the treated litter and 50% would use the control litter. […] Further, the weight difference between a control litter or litter under treatment was used to show the relative strength of the effect of a particular treatment on cat's litter use behavior. During the study, some cats (N=3; 2 in CAT+RP and 1 in RP) spilled their litter and their data were unreliable and were not included.

Row | Compound | percentage preference (% of the cats using the treated litter) [%] | Litter Type Use, g, TRT (weights of litter after 2 days) [g] | Relative Difference, % [%] | Significantly Different | effect on cats' litter preference
1 | CC(C)(S)CCO [CAT, 3-mercapto-3-methyl-1-butanol] | 40 | 0.562 | −43 | Yes | slight aversion
2 | C[C@]12CCC(=O)C[C@@H]1CC[C@@H]1[C@@H]2CC[C@]2(C)C=CC[C@@H]12 [ANDRO, Androstenone] | 50 | 0.571 | −11 | No | did not provide any attraction
